PubChem BioAssay (NCI)
Several values for one entry are separate records, joined by “and”; a condition that tells them apart may be missing. Equal values may be shown once.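 Five compound concentrations were applied to cells in 96-well plates for 48 hours; endpoints were derived by simple linear interpolation of the resulting dose-response curve. GI50: concentration for 50% inhibition of growth. TGI: total growth inhibition.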

Test system: MDA-MB-468 breast
Test: NCI anticancer screen, dose series, 48 h

Row | SMILES | GI50 | TGI
1 | O=C(/C=C/c1ccc(C(F)(F)F)cc1)c1ccc(Nc2nc(NCCO)nc(NCCO)n2)cc1 | 2020 nM | 5070 nM
2 | C#CCN1C(=O)/C(=c2\sc3n(c2=O)C2C(NN=3)N(CC)C(=O)N2CC)c2ccccc21 (configuration not stated) | 331 nM | 3240 nM
3 | CCN1CCN(c2nc(NNC(=O)Cc3ccccc3)nc(N3CCN(C(c4ccccc4)c4ccccc4)CC3)n2)CC1 | 1950 nM | 4520 nM
4 | CC(=O)Oc1ccc(OC(C)=O)c2ccccc12 | 477 nM | 2190 nM
5 | CC1(C)CCC[C@]23C(=O)O[C@](O)(C(=O)C4=C[C@@](C)(/C=C/CCCc5ccc6ccc7cccc8ccc5c6c78)CC[C@@]42O)[C@@H]13 | 196 nM | 409 nM
6 | CC(=O)OCC1OC(OC2C(COC(C)=O)OC(OCCC[S-])C(OC(C)=O)C2OC(C)=O)C(OC(C)=O)C(OC(C)=O)C1OC(C)=O.[Au+].c1ccc(CN2[CH-]N(Cc3ccccc3)C(c3ccccc3)=C2c2ccccc2)cc1 (configuration not stated) | 2810 nM | 12400 nM
7 | Nc1ncnc2c1c(C(F)(F)F)cn2[C@@H]1O[C@H](CO)[C@@H](O)[C@H]1O | 242 nM | 2140 nM
8 | Nc1ccc(-c2nc3ccc4[nH]ncc4c3c3c2CCCC3)cc1F | 126 nM | 625 nM
9 | COc1cc(C)c(C(=O)O[C@H]2[C@H](O[C@H]3[C@@H](O)COC(O[C@H]4C[C@H]5[C@@H]6CC=C7C[C@@H](O)CC[C@]7(C)[C@H]6CC[C@]5(C)[C@H]4[C@H](C)C(=O)CCC(C)C)[C@@H]3OC(C)=O)OC[C@@H](O)[C@@H]2O)c(C)c1 (some centres not stated) | 17.1 nM | 1840 nM
10 | COc1ccc(/C(C)=C(\c2ccc(Cl)cc2)c2ccc(OCCN3CCCC3)cc2)cc1 | 4030 nM | 8850 nM
11 | CCCCCCCCCCCCn1c(C)nc2ccccc21 | 601 nM | 19400 nM
12 | COc1ccc(-c2ccc(/C=C/C(=O)NO)cc2)cc1 | 463 nM | 2620 nM
13 | CCN(CC)CCN1C(=O)c2c(c(C)c3c(oc4cc(O)ccc43)c2C)C1=O | 1460 nM | 3010 nM
14 | C/C(=N\NC(N)=O)C(CN1CCCCC1)C(c1ccccc1)c1c(O)c2ccccc2oc1=O (configuration not stated) | > 100000 nM | > 100000 nM
15 | S=c1nc(-c2ccccc2)oc(=NC2CCCCC2)n1C1CCCCC1 | 1970 nM | 4830 nM
16 | CC1(C)N=C(N)N=C(N)N1c1cccc(C#N)c1 | 2310 nM | > 100000 nM
17 | Cl.[Pt].[c-]1ccccc1-c1ccccn1.c1ccc(P(c2ccccc2)C([PH+](c2ccccc2)c2ccccc2)[PH+](c2ccccc2)c2ccccc2)cc1 | 571 nM | 4210 nM

Row | SMILES | GI50 | TGI
18 | O=C1NC(=O)/C(=C/C=C/c2ccccc2)S1 | 10900 nM | 56000 nM
19 | C[C@]12O[C@H](C[C@]1(O)CO)n1c3ccccc3c3c4c(c5c6ccccc6n2c5c31)CNC4=O | 457 nM and 185 nM | 2570 nM and 1650 nM
20 | CCSc1oc(-c2ccccc2)nc1[P+](c1ccccc1)(c1ccccc1)c1ccccc1 | 168 nM | 676 nM
21 | O=C1c2ccccc2C(=O)c2c1ccc(C(Br)Br)c2[N+](=O)[O-] | 541 nM | 2280 nM
22 | O=C(NCc1cccnc1)/C(=C\c1ccc(Br)cc1)S(=O)(=O)c1ccccc1 | 266 nM | 933 nM
23 | COc1ccc(SC2c3cc(OC)c(OC)cc3Oc3nc(N)c(C#N)c(N)c32)cc1 (configuration not stated) | 320 nM | 1530 nM
24 | CCOC(=O)c1sc(-c2ccc(OS(=O)(=O)c3cccs3)c(C=O)c2)nc1C | 1310 nM | 4950 nM
25 | CC(C)C[C@H](NC(=O)[C@H](CCc1ccccc1)NC(=O)CN1CCOCC1)C(=O)N[C@@H](Cc1ccccc1)C(=O)N[C@@H](CC(C)C)C(=O)[C@@]1(C)CO1 | < 13.5 nM | 36.2 nM
26 | COc1ccc(/C=C/c2c(C(=O)/C=C/c3ccc(Cl)cc3)c(C)nc3ccccc23)cc1 | 1790 nM | 3540 nM
27 | COc1ccc(C(=O)c2cc(OC)c(OC)c(OC)c2)cc1OC(C)=O | 754 nM | –
28 | CCCS(=O)(=O)Nc1ccc(F)c(C(=O)c2c[nH]c3ncc(-c4ccc(Cl)cc4)cc23)c1F | 3550 nM and 5650 nM | 20100 nM and > 10000 nM
29 | CN1/C(=C\C(I)C(I)C2=[N+](C)c3ccccc3C2(C)C)C(C)(C)c2ccccc21 (configuration not stated) | 72.3 nM | 1240 nM
30 | Cn1nc(C(F)(F)F)c(-c2ccc(Cl)c(C(F)(F)F)c2)c1-c1ccc(OCc2ccc(Cl)cc2)cc1O | 1340 nM | 3650 nM
31 | COc1ccc(-c2ccc3c(NC(=O)C4CC4)n[nH]c3n2)cc1 | > 25000 nM | > 25000 nM
32 | COc1ccc(-c2nn(-c3cccc(Cl)c3)cc2C=C(C#N)C#N)cc1 | 1670 nM | 4960 nM
33 | CN(C)CCCNc1nn2c(=O)c3ccccc3nc2c2ccccc12 | 6230 nM | 20000 nM
34 | N#Cc1c(NC(=O)c2ccccc2)sc2c1CCC(=O)C2 | 2190 nM | 6940 nM
